Data taken from patent US12637469B2, “1H-pyrazole derivative and application thereof as dual target inhibitor of Syk and VEGFR2” (Ocumension Therapeutics (Suzhou) Co., Ltd., priority 2020, dated 2026).

Columns and labels:
Experiment in all cases: Eurofins KinaseProfiler off-target kinase inhibition
Type in all cases: biochemical
Txk(h) = target: T1, Txk(h) (Homo sapiens, UniProt P42681)
T1 construct: purchased Eurofins (KinaseProfiler platform)
Description: (§1) In order to investigate the specificity of the inhibition of the target by the compound, in this study, the activity and selectivity of test compound 1 on the off-target kinases in related pathways were tested on the Eurofins kinaseProfiler™ platform, and compound screening and analysis were conducted using IC50 value as the indicator.
(§2) Compound 1 was detected for each selected kinase using the standard Eurofins Kinase Profiler™ protocol, which followed the relevant standard operating procedures. The IC50 values of the inhibitory activity of the test compound 1 on 67 kinases including Abl(h), B-Raf(h), BTK(h) and JAK(h) were analyzed.

BTK(h) = target: T2, BTK(h) (Homo sapiens, UniProt Q06187)
T2 construct: purchased Eurofins (KinaseProfiler platform)
T2 sequence (Q06187 whole entry): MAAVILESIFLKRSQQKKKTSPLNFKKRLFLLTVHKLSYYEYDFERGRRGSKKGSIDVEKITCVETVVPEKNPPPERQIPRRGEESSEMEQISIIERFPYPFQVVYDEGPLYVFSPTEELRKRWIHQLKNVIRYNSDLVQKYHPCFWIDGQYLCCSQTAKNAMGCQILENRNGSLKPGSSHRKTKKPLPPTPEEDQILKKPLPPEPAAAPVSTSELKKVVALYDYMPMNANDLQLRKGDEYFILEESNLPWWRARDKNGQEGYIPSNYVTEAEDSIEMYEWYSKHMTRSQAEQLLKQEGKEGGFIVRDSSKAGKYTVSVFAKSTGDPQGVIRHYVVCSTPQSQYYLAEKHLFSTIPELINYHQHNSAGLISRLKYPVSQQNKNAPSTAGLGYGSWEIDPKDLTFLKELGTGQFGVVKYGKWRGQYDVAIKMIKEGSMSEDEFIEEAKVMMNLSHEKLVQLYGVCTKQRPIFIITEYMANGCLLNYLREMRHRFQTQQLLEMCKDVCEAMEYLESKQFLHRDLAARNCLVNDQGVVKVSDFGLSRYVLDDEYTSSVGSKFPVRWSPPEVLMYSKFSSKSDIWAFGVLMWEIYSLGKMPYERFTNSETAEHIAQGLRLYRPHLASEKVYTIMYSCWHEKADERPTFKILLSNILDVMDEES
Description: as §1, §2

JNK2α2(h) = target: T3, JNK2α2(h) (Homo sapiens, UniProt P45984)
T3 construct: purchased Eurofins (KinaseProfiler service)
Description: as §1, §2

ROCK-II(h) = target: T4, ROCK-II(h) (Homo sapiens, UniProt O75116)
T4 construct: purchased Eurofins (KinaseProfiler platform)
Description: as §1, §2

PDGFRα(h) = target: T5, PDGFRα(h) (Homo sapiens, UniProt P16234)
T5 construct: purchased Eurofins (KinaseProfiler service)
Description: as §1, §2

BRK(h) = target: T6, BRK(h) (Homo sapiens, UniProt Q13882)
T6 construct: purchased Eurofins (KinaseProfiler platform)
T6 sequence (Q13882 whole entry): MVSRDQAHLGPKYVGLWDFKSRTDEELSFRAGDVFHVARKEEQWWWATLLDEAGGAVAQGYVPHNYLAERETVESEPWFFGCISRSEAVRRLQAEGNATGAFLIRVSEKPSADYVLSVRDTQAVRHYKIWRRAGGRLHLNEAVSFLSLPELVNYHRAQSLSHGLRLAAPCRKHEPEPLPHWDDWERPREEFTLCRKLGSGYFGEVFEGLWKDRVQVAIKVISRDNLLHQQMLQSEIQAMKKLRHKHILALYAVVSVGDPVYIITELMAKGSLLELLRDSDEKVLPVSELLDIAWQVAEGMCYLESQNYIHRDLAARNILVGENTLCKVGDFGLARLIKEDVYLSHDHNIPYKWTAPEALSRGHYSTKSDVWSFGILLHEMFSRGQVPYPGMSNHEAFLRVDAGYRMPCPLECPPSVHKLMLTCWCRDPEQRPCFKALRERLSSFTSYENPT
Description: as §1, §2

MAP4K4(h) = target: T7, MAP4K4(h) (Homo sapiens, UniProt O95819)
T7 construct: purchased Eurofins (KinaseProfiler service)
Description: as §1, §2

Src(T341M)(h) = target: T8, Src(T341M)(h) (Homo sapiens, UniProt P12931, T341M)
T8 construct: purchased Eurofins (KinaseProfiler platform)
Description: as §1, §2

JNK1α1(h) = target: T9, JNK1α1(h) (Homo sapiens, UniProt P45983)
T9 construct: purchased Eurofins (KinaseProfiler service)
Description: as §1, §2

Yes(h) = target: T10, Yes(h) (Homo sapiens, UniProt P07947)
T10 construct: purchased Eurofins (KinaseProfiler platform)
Description: as §1, §2

CDK4/cyclinD3(h) = target: T11, CDK4/cyclinD3(h) (Homo sapiens, UniProt P11802)
T11 construct: purchased Eurofins (KinaseProfiler platform)
Description: as §1, §2

CDK6/cyclinD3(h) = target: T12, CDK6/cyclinD3(h) (Homo sapiens, UniProt Q00534)
T12 construct: purchased Eurofins (KinaseProfiler platform)
T12 sequence (Q00534 whole entry): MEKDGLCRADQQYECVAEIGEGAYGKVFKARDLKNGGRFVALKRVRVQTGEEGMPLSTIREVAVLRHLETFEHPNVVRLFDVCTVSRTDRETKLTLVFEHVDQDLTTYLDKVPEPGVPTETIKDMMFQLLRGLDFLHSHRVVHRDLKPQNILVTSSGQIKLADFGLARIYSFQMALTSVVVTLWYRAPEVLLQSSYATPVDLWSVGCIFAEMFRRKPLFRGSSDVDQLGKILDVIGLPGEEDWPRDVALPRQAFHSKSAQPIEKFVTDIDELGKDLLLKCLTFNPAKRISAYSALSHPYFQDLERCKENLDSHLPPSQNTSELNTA
T12 sequence (P30281 whole entry partner): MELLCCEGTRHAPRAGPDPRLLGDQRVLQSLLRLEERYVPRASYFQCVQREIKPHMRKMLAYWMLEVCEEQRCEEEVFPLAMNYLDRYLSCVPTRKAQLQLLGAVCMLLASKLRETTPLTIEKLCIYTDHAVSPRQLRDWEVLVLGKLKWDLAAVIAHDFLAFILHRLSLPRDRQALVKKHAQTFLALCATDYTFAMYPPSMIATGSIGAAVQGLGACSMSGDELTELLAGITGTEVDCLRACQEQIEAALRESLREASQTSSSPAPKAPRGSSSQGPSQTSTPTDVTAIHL
Description: as §1, §2

Lck(h)activated = target: T13, Lck(h)activated (Homo sapiens, UniProt P06239)
T13 construct: purchased Eurofins (KinaseProfiler service)
T13 sequence (P06239 whole entry): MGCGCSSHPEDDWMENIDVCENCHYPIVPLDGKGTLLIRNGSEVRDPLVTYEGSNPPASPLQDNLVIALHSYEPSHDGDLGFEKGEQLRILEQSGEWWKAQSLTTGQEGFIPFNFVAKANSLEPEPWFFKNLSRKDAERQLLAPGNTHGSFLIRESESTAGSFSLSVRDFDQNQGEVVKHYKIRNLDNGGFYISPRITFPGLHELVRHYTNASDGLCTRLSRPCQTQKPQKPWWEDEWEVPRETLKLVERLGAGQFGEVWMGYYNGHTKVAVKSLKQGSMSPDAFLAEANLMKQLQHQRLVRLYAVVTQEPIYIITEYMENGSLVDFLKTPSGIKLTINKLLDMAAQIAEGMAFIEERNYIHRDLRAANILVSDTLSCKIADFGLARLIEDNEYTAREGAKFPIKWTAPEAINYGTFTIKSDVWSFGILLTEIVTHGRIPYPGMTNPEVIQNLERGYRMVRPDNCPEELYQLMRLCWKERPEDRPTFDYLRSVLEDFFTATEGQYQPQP
Description: as §1, §2

Ret(h) = target: T14, Ret(h) (Homo sapiens, UniProt P07949)
T14 construct: purchased Eurofins (KinaseProfiler platform)
Description: as §1, §2

CDK2/cyclinA(h) = target: T15, CDK2/cyclinA(h) (Homo sapiens, UniProt P24941)
T15 construct: purchased Eurofins (KinaseProfiler platform)
Description: as §1, §2

Flt3(h) = target: T16, Flt3(h) (Homo sapiens, UniProt P36888)
T16 construct: purchased Eurofins (KinaseProfiler platform)
Description: as §1, §2

TGFBR1(h) = target: T17, TGFBR1(h) (Homo sapiens, UniProt P36897)
T17 construct: purchased Eurofins (KinaseProfiler platform)
Description: as §1, §2

Abl(h) = target: T18, Abl(h) (Homo sapiens, UniProt P00519)
T18 construct: purchased Eurofins (KinaseProfiler platform)
Description: as §1, §2

MAPK1(h) = target: T19, MAPK1(h) (Homo sapiens, UniProt P27361)
T19 construct: purchased Eurofins (KinaseProfiler service)
T19 sequence (P27361 2-379 limits assumed): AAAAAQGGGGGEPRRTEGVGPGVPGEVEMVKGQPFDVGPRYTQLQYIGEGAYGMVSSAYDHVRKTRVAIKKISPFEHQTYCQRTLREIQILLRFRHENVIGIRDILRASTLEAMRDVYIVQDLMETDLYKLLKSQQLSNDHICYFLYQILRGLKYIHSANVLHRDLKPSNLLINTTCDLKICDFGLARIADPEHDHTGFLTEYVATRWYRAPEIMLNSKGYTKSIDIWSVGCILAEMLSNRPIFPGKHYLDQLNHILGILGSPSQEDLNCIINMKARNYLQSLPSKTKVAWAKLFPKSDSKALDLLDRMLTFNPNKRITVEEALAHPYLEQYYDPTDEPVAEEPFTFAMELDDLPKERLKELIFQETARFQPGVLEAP
Description: as §1, §2

MAPKAP-K2(h) = target: T20, MAPKAP-K2(h) (Homo sapiens, UniProt P49137)
T20 construct: purchased Eurofins (KinaseProfiler service)
Description: as §1, §2

cSRC(h) = target: T21, cSRC(h) (Homo sapiens, UniProt P12931)
T21 construct: purchased Eurofins (KinaseProfiler platform)
Description: as §1, §2

IKKα(h) = target: T22, IKKα(h) (Homo sapiens, UniProt O15111)
T22 construct: purchased Eurofins (KinaseProfiler platform)
Description: as §1, §2

SAPK2b(h) = target: T23, SAPK2b(h) (Homo sapiens, UniProt Q15759)
T23 construct: purchased Eurofins (KinaseProfiler platform)
Description: as §1, §2

MEK1(h) = target: T24, MEK1(h) (Homo sapiens, UniProt Q02750)
T24 construct: purchased Eurofins (KinaseProfiler service)
Description: as §1, §2

FGFR3(h) = target: T25, FGFR3(h) (Homo sapiens, UniProt P22607)
T25 construct: purchased Eurofins (KinaseProfiler platform)
Description: as §1, §2

FGFR1(h) = target: T26, FGFR1(h) (Homo sapiens, UniProt P11362)
T26 construct: purchased Eurofins (KinaseProfiler platform)
T26 sequence (P11362 22-822): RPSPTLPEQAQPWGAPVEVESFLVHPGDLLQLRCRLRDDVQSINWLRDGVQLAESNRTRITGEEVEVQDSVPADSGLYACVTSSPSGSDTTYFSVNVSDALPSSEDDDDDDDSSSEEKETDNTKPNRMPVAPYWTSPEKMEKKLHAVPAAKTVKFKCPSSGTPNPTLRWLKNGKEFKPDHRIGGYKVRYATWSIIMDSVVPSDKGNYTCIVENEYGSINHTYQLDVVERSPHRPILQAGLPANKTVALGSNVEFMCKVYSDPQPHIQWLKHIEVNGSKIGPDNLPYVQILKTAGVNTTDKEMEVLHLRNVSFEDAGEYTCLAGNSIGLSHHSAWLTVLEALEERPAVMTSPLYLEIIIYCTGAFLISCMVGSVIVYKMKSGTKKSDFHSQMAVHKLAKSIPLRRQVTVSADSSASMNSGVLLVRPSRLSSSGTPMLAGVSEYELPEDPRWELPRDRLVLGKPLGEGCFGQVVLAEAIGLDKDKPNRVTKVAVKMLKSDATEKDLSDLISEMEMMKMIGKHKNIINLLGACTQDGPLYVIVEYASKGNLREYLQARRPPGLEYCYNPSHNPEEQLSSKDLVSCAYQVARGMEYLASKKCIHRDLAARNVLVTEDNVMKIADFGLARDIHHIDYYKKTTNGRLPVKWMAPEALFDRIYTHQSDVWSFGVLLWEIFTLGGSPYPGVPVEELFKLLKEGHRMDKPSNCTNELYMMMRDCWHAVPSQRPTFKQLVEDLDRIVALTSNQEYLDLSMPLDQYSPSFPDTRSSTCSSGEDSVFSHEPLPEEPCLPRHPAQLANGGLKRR
Description: as §1, §2

Src(1-530)(h) = target: T27, Src(1-530)(h) (Homo sapiens, UniProt P12931)
T27 construct: Src(1-530)(h); purchased Eurofins (KinaseProfiler platform)
Description: as §1, §2

SAPK3(h) = target: T28, SAPK3(h) (Homo sapiens, UniProt P53778)
T28 construct: purchased Eurofins (KinaseProfiler platform)
Description: as §1, §2

c-kit(h) = target: T29, c-kit(h) (Homo sapiens, UniProt P10721)
T29 construct: purchased Eurofins (KinaseProfiler platform)
Description: as §1, §2

PKBα(h) = target: T30, PKBα(h) (Homo sapiens, UniProt P31749)
T30 construct: purchased Eurofins (KinaseProfiler platform)
Description: as §1, §2

CHK1(h) = target: T31, CHK1(h) (Homo sapiens, UniProt O14757)
T31 construct: purchased Eurofins (KinaseProfiler platform)
Description: as §1, §2

PKA(h) = target: T32, PKA(h) (Homo sapiens, UniProt P17612)
T32 construct: purchased Eurofins (KinaseProfiler service)
Description: as §1, §2

JAK1(h) = target: T33, JAK1(h) (Homo sapiens, UniProt P23458)
T33 construct: purchased Eurofins (KinaseProfiler service)
Description: as §1, §2

Tie2(h) = target: T34, Tie2(h) (Homo sapiens, UniProt Q02763)
T34 construct: purchased Eurofins (KinaseProfiler platform)
Description: as §1, §2

TYK2(h) = target: T35, TYK2(h) (Homo sapiens, UniProt P29597)
T35 construct: purchased Eurofins (KinaseProfiler platform)
Description: as §1, §2

EGFR(h) = target: T36, EGFR(h) (Homo sapiens, UniProt P00533)
T36 construct: purchased Eurofins (KinaseProfiler platform)
Description: as §1, §2

FAK(h) = target: T37, FAK(h) (Homo sapiens, UniProt Q05397)
T37 construct: purchased Eurofins (KinaseProfiler service)
Description: as §1, §2

Lyn(h) = target: T38, Lyn(h) (Homo sapiens, UniProt P07948)
T38 construct: purchased Eurofins (KinaseProfiler service)
Description: as §1, §2

IR(h) = target: T39, IR(h) (Homo sapiens, UniProt P06213)
T39 construct: purchased Eurofins (KinaseProfiler service)
T39 sequence (P06213 28-1382): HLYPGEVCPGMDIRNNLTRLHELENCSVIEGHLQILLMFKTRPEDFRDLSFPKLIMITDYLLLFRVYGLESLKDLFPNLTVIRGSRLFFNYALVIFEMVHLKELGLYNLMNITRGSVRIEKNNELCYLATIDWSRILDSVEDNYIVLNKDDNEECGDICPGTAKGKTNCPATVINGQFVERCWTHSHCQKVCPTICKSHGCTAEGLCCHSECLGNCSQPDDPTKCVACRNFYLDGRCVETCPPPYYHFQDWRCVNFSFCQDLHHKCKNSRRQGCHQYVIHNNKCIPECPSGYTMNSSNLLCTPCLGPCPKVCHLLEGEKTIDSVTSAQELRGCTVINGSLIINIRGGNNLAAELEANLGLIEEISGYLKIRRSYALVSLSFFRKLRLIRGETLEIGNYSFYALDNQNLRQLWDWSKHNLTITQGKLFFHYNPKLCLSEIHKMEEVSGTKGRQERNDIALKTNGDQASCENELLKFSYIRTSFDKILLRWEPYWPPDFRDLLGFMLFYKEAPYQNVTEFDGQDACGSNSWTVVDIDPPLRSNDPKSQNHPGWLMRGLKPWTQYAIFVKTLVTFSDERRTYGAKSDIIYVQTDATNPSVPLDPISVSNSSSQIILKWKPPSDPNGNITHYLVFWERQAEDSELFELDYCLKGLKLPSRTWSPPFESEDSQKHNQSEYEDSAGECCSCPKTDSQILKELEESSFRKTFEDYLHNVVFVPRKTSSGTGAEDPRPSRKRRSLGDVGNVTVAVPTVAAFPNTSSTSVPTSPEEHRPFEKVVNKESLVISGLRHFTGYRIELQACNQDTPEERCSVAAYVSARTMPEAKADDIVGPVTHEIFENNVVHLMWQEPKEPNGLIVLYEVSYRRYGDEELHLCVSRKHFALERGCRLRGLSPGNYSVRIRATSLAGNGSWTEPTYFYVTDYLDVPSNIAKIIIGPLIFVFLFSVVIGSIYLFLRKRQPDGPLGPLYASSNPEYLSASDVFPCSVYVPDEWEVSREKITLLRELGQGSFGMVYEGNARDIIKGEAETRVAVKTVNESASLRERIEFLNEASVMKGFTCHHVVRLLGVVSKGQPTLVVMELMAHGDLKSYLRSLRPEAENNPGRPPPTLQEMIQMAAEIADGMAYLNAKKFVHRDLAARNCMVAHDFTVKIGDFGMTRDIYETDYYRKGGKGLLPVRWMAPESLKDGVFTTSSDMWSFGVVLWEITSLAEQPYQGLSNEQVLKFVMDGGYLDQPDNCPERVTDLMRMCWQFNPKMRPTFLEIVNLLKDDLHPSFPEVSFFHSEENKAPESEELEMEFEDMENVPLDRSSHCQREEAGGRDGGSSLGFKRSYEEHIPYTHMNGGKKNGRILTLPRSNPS
Description: as §1, §2

Work on `c1cn2c(n1)c(Nc1ccc(N3CCOCC3)cc1)nc1ccc(-c3cn[nH]c3)cc12` [Compound 1] yielded an IC50 (Txk(h)) of 227 nM, an IC50 (BTK(h)) of 1040 nM and an IC50 (JNK2α2(h)) of over 10000 nM. For the same compound, the IC50 (ROCK-II(h)) was 499 nM, the IC50 (PDGFRα(h)) was 2700 nM and the IC50 (BRK(h)) was 775 nM. For the same compound, the IC50 (MAP4K4(h)) was 63 nM, the IC50 (Src(T341M)(h)) was 1010 nM and the IC50 (JNK1α1(h)) was 1170 nM. For the same compound, the IC50 (Yes(h)) was 204 nM, the IC50 (CDK4/cyclinD3(h)) was over 10000 nM and the IC50 (CDK6/cyclinD3(h)) was over 10000 nM. The IC50 (Lck(h)activated) was 1310 nM, the IC50 (Ret(h)) was 756 nM and the IC50 (CDK2/cyclinA(h)) was over 10000 nM. The IC50 (Flt3(h)) was 12 nM, the IC50 (TGFBR1(h)) was over 10000 nM and the IC50 (Abl(h)) was 152 nM. It also gave an IC50 (MAPK1(h)) of over 10000 nM, an IC50 (MAPKAP-K2(h)) of over 10000 nM and an IC50 (cSRC(h)) of 367 nM. For the same compound, the IC50 (IKKα(h)) was 946 nM, the IC50 (SAPK2b(h)) was over 10000 nM and the IC50 (MEK1(h)) was over 10000 nM. For the same compound, the IC50 (FGFR3(h)) was over 10000 nM, the IC50 (FGFR1(h)) was 847 nM and the IC50 (Src(1-530)(h)) was 827 nM. For the same compound, the IC50 (SAPK3(h)) was over 10000 nM, the IC50 (c-kit(h)) was 2840 nM and the IC50 (PKBα(h)) was over 10000 nM. For the same compound, the IC50 (CHK1(h)) was over 10000 nM, the IC50 (PKA(h)) was over 10000 nM and the IC50 (JAK1(h)) was 663 nM. The IC50 (Tie2(h)) was 2060 nM, the IC50 (TYK2(h)) was 117 nM and the IC50 (EGFR(h)) was over 10000 nM. The IC50 (FAK(h)) was 469 nM, the IC50 (Lyn(h)) was 934 nM and the IC50 (IR(h)) was over 10000 nM.
